According to ChEMBL document CHEMBL5550103, “Design, synthesis, and antiviral activity of 1-aryl-4-arylmethylpiperazine derivatives as Zika virus inhibitors with broad antiviral spectrum” (Bioorg Med Chem, 2024):
Active and inactive are the calls of the source. No cut-off for these calls is given here.

Assays:
[1] = test system: Zika virus; assay: Antiviral activity against ZIKV infected in HUVECs pre-infected with virus followed by compound addition and measured after 48 hrs by qRT-PCR analysis; type: functional, organism-based; settings: HUVEC
[2] = Cytotoxicity against HUVECs assessed as reduction in cell viability incubated for 48 hrs by CCK-8 method; type: toxicity, cell-based; settings: human, HUVEC cells
[3] = Selectivity index, ratio of CC50 for HUVECs to EC50 for ZIKA virus infected in HUVECs; type: toxicity; settings: human, HUVEC cells; read-out: Ratio CC50/EC50
[4] = test system: Zika virus; assay: Antiviral activity against ZIKV infected in HUVECs at 5 uM pre-infected with virus followed by compound addition and measured after 48 hrs by qRT-PCR analysis relative to control; type: functional; settings: HUVEC
[5] = Cytotoxicity against HUVECs assessed as reduction in cell viability at 5 uM incubated for 48 hrs by CCK-8 method relative to control; type: toxicity, cell-based; settings: human, HUVEC cells, values are per cent of control
[6] = test system: Zika virus; assay: Antiviral activity against ZIKV infected in HUVECs assessed as reduction in NS5 protein level measured after 48 hrs by Western blot analysis; type: functional, organism-based; settings: HUVEC, dose 0.625-5 µM
[7] = test system: Zika virus; assay: Antiviral activity against ZIKV infected in HUVECs assessed as inhibition of viral replication at 10 uM pretreated with cells for 1 hr followed by viral infection for 1 hr prior to compound washout and measured after 48 hrs post infection by qRT-PCR analysis; type: functional, organism-based; settings: HUVEC, time 2.0 hrs
[8] = test system: Zika virus; assay: Antiviral activity against ZIKV infected in HUVECs assessed as inhibition of viral replication at 10 uM incubated for 1 hr with subsequent addition of virus followed by compound washout and measured after 48 hrs post infection by qRT-PCR analysis; type: functional, organism-based; settings: HUVEC
[9] = test system: Zika virus; assay: Antiviral activity against ZIKV infected in HUVECs assessed as inhibition of viral replication at 10 uM pre-infected with virus for 1 hr prior to compound addition for 1 hr followed by compound washout and measured after 48 hrs post infection by qRT-PCR analysis; type: functional, organism-based; settings: HUVEC
[10] = test system: Zika virus; assay: Antiviral activity against ZIKV infected in HUVECs assessed as reduction in viral attachment to AXL; type: functional, organism-based; settings: HUVEC
[11] = test system: Human coronavirus OC43; assay: Antiviral activity against Human coronavirus OC43 infected in BHK-21 cells assessed as inhibition of viral replication pre-infected with virus for 24 hrs followed by compound addition and measured after 48 hrs by luciferase assay; type: functional, organism-based; settings: Betacoronavirus 1, BHK-21
[12] = test system: Influenza A virus; assay: Antiviral activity against influenza A virus infected in HEK293T cells assessed as inhibition of viral replication pre-infected with virus followed by compound addition and measured after 24 hrs by luciferase assay; type: functional, organism-based; settings: HEK-293T
[13] = test system: HEK-293T; assay: Cytotoxicity against HEK293T cells assessed as reduction in cell viability at >10 uM measured after 24 hrs by CCK-8 method; type: toxicity, cell-based; settings: human
[14] = Metabolic stability in mouse liver microsomes assessed as half life preincubated with NADPH for 10 mins followed by compound addition and measured upto 30 mins by LC-MS/MS analysis; type: ADME, Microsome; settings: time < 40 min
[15] = Metabolic stability in human liver microsomes assessed as half life preincubated with NADPH for 10 mins followed by compound addition and measured upto 30 mins by LC-MS/MS analysis; type: ADME, Microsome; settings: time < 40 min
[16] = test system: Zika virus; assay: Antiviral activity against ZIKV infected in HUVECs assessed as reduction in NS5 protein level at 1 uM measured after 48 hrs by Western blot analysis; type: functional, organism-based; settings: HUVEC

CN1CCCN(c2ccc(C(F)(F)F)c(CN3CCN(c4ccc(C(F)(F)F)cc4)CC3)c2)CC1
EC50 [1]: 930 nM | CC50 at 48 h [2]: 9890 nM | selectivity ratio [3]: 11

CN1CC2CN(c3ccnc(CN4CCN(c5ccc(Cl)cc5)CC4)c3)CC2C1 (stereo not drawn)
EC50 [1]: 1220 nM | CC50 at 48 h [2]: > 50000 nM | selectivity ratio [3]: > 41

Clc1ccc(N2CCN(Cc3cc(N4CCC5(CCCN5Cc5ccccc5)C4)ccn3)CC2)cc1 (stereo not drawn)
inhibition at 5 µM [4]: 49% | viability, % of control at 48 h, 5 µM [5]: 91%

CN1CC2(CCN(c3ccnc(CN4CCN(c5ccc(Cl)cc5)CC4)c3)C2)C1
EC50 [1]: 820 nM | CC50 at 48 h [2]: > 50000 nM | selectivity ratio [3]: > 61 | Activity [6]: Dose-Dependent Effect | Activity [7]: Active | Activity [8]: Active | Activity [9]: inactive | Activity [10]: inactive | EC50 [11]: 2200 nM | EC50 [12]: 2600 nM | Activity [13]: Toxic | half-life [14]: 1.4 h | half-life [15]: > 1.53 h

CN(C)CCN(C)c1ccc(C(F)(F)F)c(CN2CCN(c3ccc(Cl)cc3)CC2)c1
EC50 [1]: 1130 nM | CC50 at 48 h [2]: 22400 nM | selectivity ratio [3]: 20

Cc1ccc(N2CCN(Cc3cc(N(C)CCN(C)C)ccn3)CC2)cc1
inhibition at 5 µM [4]: < 10% | viability, % of control at 48 h, 5 µM [5]: 101%

Clc1ccc(N2CCN(Cc3cc(N4CCC5(CCN(Cc6ccccc6)CC5)C4)ccn3)CC2)cc1
EC50 [1]: 150 nM | CC50 at 48 h [2]: 20700 nM | selectivity ratio [3]: 138

CN(C)CCN(C)c1ccc(C(F)(F)F)c(CN2CCN(c3ccncc3)CC2)c1
inhibition at 5 µM [4]: < 10% | viability, % of control at 48 h, 5 µM [5]: 107%

CN(C)CCN(C)CCN(C)c1ccc(C(F)(F)F)c(CN2CCN(c3ccncc3)CC2)c1
EC50 [1]: 390 nM | CC50 at 48 h [2]: > 50000 nM | selectivity ratio [3]: > 128 | Activity [6]: Dose-Dependent Effect | Activity [7]: Active | Activity [8]: Active | Activity [9]: inactive | Activity [10]: inactive | EC50 [11]: 2280 nM | EC50 [12]: 2690 nM | Activity [13]: Toxic | half-life [14]: 2.31 h | half-life [15]: > 1.53 h

CN1CCC2(CC1)CCN(c1ccc(C(F)(F)F)c(CN3CCN(c4ccc(C(F)(F)F)cc4)CC3)c1)C2
EC50 [1]: 590 nM | CC50 at 48 h [2]: 2270 nM | selectivity ratio [3]: 4

Cc1ccc(N2CCN(Cc3cc(N(C)CCN(C)C)ccc3C(F)(F)F)CC2)cc1
inhibition at 5 µM [4]: < 10% | viability, % of control at 48 h, 5 µM [5]: 103%

Cc1ccc(N2CCN(Cc3cc(N4CCCN(C)CC4)ccc3C(F)(F)F)CC2)cc1
inhibition at 5 µM [4]: < 10% | viability, % of control at 48 h, 5 µM [5]: 105%

CN(C)CCN(CCN(C)C)c1ccnc(CN2CCN(c3ccc(C(F)(F)F)cc3)CC2)c1
inhibition at 5 µM [4]: < 10% | viability, % of control at 48 h, 5 µM [5]: 104%

CN(C)CCN(C)c1ccnc(CN2CCN(c3ccc(Cl)cc3)CC2)c1
EC50 [1]: 950 nM | CC50 at 48 h [2]: > 50000 nM | selectivity ratio [3]: > 52

Cc1ccc(N2CCN(Cc3cc(N4CCC5(CCN(C)CC5)C4)ccn3)CC2)cc1
inhibition at 5 µM [4]: < 10% | viability, % of control at 48 h, 5 µM [5]: 100%

CN1CCC2(CC1)CCN(c1ccnc(CN3CCN(c4ccc(C(F)(F)F)cc4)CC3)c1)C2
EC50 [1]: 2180 nM | CC50 at 48 h [2]: 30400 nM | selectivity ratio [3]: 14

CN(C)CCN(C)c1ccc(C(F)(F)F)c(CN2CCN(c3ccc(C(F)(F)F)cc3)CC2)c1
EC50 [1]: 2930 nM | CC50 at 48 h [2]: 14600 nM | selectivity ratio [3]: 5

C#C[C@@]1(O)[C@H](O)[C@@H](CO)O[C@H]1n1ccc2c(N)ncnc21
Activity [16]: Active | Activity [7]: inactive | Activity [9]: Active

CN1CCN(c2ccnc(CN3CCN(c4ccc(Cl)cc4)CC3)c2)CC1
EC50 [1]: 1460 nM | CC50 at 48 h [2]: > 50000 nM | selectivity ratio [3]: > 34

NC(=O)c1ncn([C@@H]2O[C@H](CO)[C@@H](O)[C@H]2O)n1 [RIBAVIRIN]
EC50 [1]: 2550 nM | CC50 at 48 h [2]: > 150000 nM | selectivity ratio [3]: > 59

CN(C)CCN(C)c1ccc(C#N)c(CN2CCN(c3ccc(Cl)cc3)CC2)c1
EC50 [1]: 2190 nM | CC50 at 48 h [2]: 19800 nM | selectivity ratio [3]: 9 | half-life [14]: 0.548 h | half-life [15]: > 1.53 h

CN(C)CCN(C)c1ccnc(CN2CCN(c3ccc(C(F)(F)F)cc3)CC2)c1
inhibition at 5 µM [4]: 33% | viability, % of control at 48 h, 5 µM [5]: 103%

CN1CCC2(CC1)CCN(c1ccnc(CN3CCN(c4ccc(Cl)cc4)CC3)c1)C2
EC50 [1]: 590 nM | CC50 at 48 h [2]: 31500 nM | selectivity ratio [3]: 54

CN1CCCN(c2ccnc(CN3CCN(c4ccc(C(F)(F)F)cc4)CC3)c2)CC1
EC50 [1]: 1320 nM | CC50 at 48 h [2]: > 50000 nM | selectivity ratio [3]: 66

Cc1ccc(N2CCN(Cc3cc(N4CCCN5CCCC5C4)ccn3)CC2)cc1 (stereo not drawn)
inhibition at 5 µM [4]: < 10% | viability, % of control at 48 h, 5 µM [5]: 100%

Cc1ccc(N2CCN(Cc3cc(N4CCCN(C)CC4)ccn3)CC2)cc1
inhibition at 5 µM [4]: < 10% | viability, % of control at 48 h, 5 µM [5]: 105%

CN(C)CCN(C)CCN(C)c1ccnc(CN2CCN(c3ccc(Cl)cc3)CC2)c1
EC50 [1]: 870 nM | CC50 at 48 h [2]: > 50000 nM | selectivity ratio [3]: > 58

Clc1ccc(N2CCN(Cc3cc(N4CC5CN(Cc6ccccc6)CC5C4)ccn3)CC2)cc1 (stereo not drawn)
EC50 [1]: 2010 nM | CC50 at 48 h [2]: > 50000 nM | selectivity ratio [3]: > 25

Cc1ccc(N2CCN(Cc3cc(N(C)CCN(C)CCN(C)C)ccc3C(F)(F)F)CC2)cc1
inhibition at 5 µM [4]: < 10% | viability, % of control at 48 h, 5 µM [5]: 98%
